# Reference: PubChem BioAssay (NCI)
#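 Five concentrations, 48 hours, 96-well plates. The concentration for 50% growth inhibition is given as GI50. TGI: concentration producing complete growth inhibition.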
# Assays:
# Assay in all cases: NCI anticancer screen, dose series, 48 h
# HCT-15 colon = tested on: HCT-15 colon
# 786-0 renal = tested on: 786-0 renal
# K-562 leukemia = tested on: K-562 leukemia
# NCI-H460 lung = tested on: NCI-H460 lung
# LOX IMVI melanoma = tested on: LOX IMVI melanoma
# SK-MEL-2 melanoma = tested on: SK-MEL-2 melanoma
# NCI/ADR-RES ovarian = tested on: NCI/ADR-RES ovarian
# OVCAR-8 ovarian = tested on: OVCAR-8 ovarian
# IGROV1 ovarian = tested on: IGROV1 ovarian
# ACHN renal = tested on: ACHN renal
Structure (SMILES),GI50 (HCT-15 colon),TGI (HCT-15 colon),GI50 (786-0 renal),TGI (786-0 renal),GI50 (K-562 leukemia),TGI (K-562 leukemia),GI50 (NCI-H460 lung),TGI (NCI-H460 lung),GI50 (LOX IMVI melanoma),TGI (LOX IMVI melanoma),GI50 (SK-MEL-2 melanoma),TGI (SK-MEL-2 melanoma),GI50 (NCI/ADR-RES ovarian),TGI (NCI/ADR-RES ovarian),GI50 (OVCAR-8 ovarian),TGI (OVCAR-8 ovarian),GI50 (IGROV1 ovarian),TGI (IGROV1 ovarian),GI50 (ACHN renal),TGI (ACHN renal)
COc1cc2c(c(OC)c1OC)C(=O)c1c-2n(CCCN=[N+]=[N-])c(=O)c2cc([N+](=O)[O-])ccc12,> 100 µM,> 100 µM,41 µM,> 100 µM,> 100 µM,> 100 µM,58.2 µM,> 100 µM,> 100 µM,> 100 µM,22.8 µM,70.7 µM,53 µM,> 100 µM,72.3 µM,> 100 µM,24.3 µM,> 100 µM,–,–
CC(=O)N1N=C(c2ccc(Nc3nc(Nc4ccc(F)cc4)nc(Nc4ccc(Cl)cc4)n3)cc2)CC1c1ccc(N(C)C)cc1 (stereo not drawn),2.64 µM,30.5 µM,3.65 µM,13.7 µM,> 32.4 µM,> 81.9 µM,6.68 µM,45 µM,3.85 µM,12.8 µM,–,–,1.65 µM,15.7 µM,3.75 µM,23.4 µM,2.96 µM,15.8 µM,4.03 µM,> 58.4 µM
CCOC(=O)C1=C(C)N(NC(=O)OC)C2(N)N(NC(=O)OC)C(C)=C(C(=O)OCC)C12C#N (stereo not drawn),–,> 100 µM,–,> 100 µM,–,> 100 µM,–,> 100 µM,–,> 100 µM,–,> 100 µM,–,–,–,> 100 µM,–,> 100 µM,–,> 100 µM
O=C(O)c1cc2cc(O)ccc2[nH]1,> 100 µM,> 100 µM,> 100 µM,> 100 µM,–,–,> 100 µM,> 100 µM,> 100 µM,> 100 µM,> 100 µM,> 100 µM,> 100 µM,> 100 µM,> 100 µM,> 100 µM,> 100 µM,> 100 µM,> 100 µM,> 100 µM
CCOC(=O)C1=C(c2ccccc2)NC(c2ccccc2)=C(C(=O)OCC)c2c1c(=O)cc[nH]c2=O,–,> 100 µM,–,> 100 µM,–,> 100 µM,–,> 100 µM,–,> 100 µM,–,> 100 µM,–,–,–,> 100 µM,–,> 100 µM,–,> 100 µM
OCCSCC/C(=N\N=C(/CCSCCO)c1ccccc1)c1ccccc1,–,> 100 µM,–,> 100 µM,–,> 100 µM,–,> 100 µM,–,> 100 µM,–,> 100 µM,–,–,–,> 100 µM,–,> 100 µM,–,> 100 µM
C=C(CN(C)Cc1ccccc1)c1ccc(C(=O)Nc2ccccc2N)cc1,2.2 µM,12.2 µM,5.21 µM,27.3 µM,3.22 µM,> 50 µM,19.9 µM,> 50 µM,1.05 µM,3.69 µM,8.73 µM,40.5 µM,1.07 µM,4.94 µM,1.56 µM,14.4 µM,0.606 µM,9.35 µM,–,–
COc1ccc(C(=O)C/C(=N/NC(N)=S)C(=O)Nc2ccccc2)cc1,–,> 100 µM,–,> 100 µM,–,> 100 µM,–,> 100 µM,–,> 100 µM,–,> 100 µM,–,–,–,> 100 µM,–,> 100 µM,–,> 100 µM
